# Assay results: patent US20150376647A1, “DESIGNER PH SENSOR AS UNIVERSAL TRANSGENE CONTROLLER” (ETH ZURICH, priority 2013, published 2015)
# System: protein kinase A (PKA)
# Assay: PKA inhibition of pH sensor signaling in pDA62/pCK53-cotransfected HEK-293T
# Format: cell-based, human
# Conditions: 10 μM for 1 h, 2 h at pH 6.9, then pH 7.6, SEAP after 24 h
# Experimental: PKA inhibition: 1.5×10^5 cells were pretreated with 10 μM H-89 (Sigma, cat. no. B1472) for 1 h, incubated for 2 h in cell culture medium adjusted to pH 6.9 and maintained for 24 h in cell culture medium adjusted to pH 7.6 before SEAP levels were assessed in the cell culture supernatant
# SEAP: Production of human placental secreted alkaline phosphatase was quantified in cell culture supernatants (Schlatter S. et al., Gene 282, 19-31 (2002)) and mouse serum (Weber et. al., Nat. Biotech., 22, 1440-1444 (2004)) as described before.
smiles,measurement,value
O=S(=O)(NCCNC/C=C/c1ccc(Br)cc1)c1cccc2cnccc12 [H-89],TDAG8-to-PCRE signaling (SEAP levels),interrupted
